# Target: T1, human vasopressin V1b receptor (Homo sapiens, UniProt P47901)
# T1 construct: expressed in transfected cells; host or cells: CHO-K1 (cell line hV1b_3H2_CHO), membrane preparation
# T1 sequence (P47901 1-424): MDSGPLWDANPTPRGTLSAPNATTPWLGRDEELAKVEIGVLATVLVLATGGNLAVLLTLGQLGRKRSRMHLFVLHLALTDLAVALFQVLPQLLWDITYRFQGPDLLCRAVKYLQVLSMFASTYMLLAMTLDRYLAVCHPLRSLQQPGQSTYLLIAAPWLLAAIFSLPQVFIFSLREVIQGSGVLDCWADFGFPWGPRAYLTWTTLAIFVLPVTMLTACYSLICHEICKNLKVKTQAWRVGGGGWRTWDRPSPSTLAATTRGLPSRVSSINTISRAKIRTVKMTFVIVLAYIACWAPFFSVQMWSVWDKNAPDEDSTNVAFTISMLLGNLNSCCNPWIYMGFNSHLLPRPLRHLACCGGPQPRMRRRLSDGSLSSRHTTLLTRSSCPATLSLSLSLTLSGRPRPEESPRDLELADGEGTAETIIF
# Assay: Vasopressin V1b receptor binding test
# Settings: membranes of CHO-K1 cells with human V1b receptor, displacement of 1.5 nM 3H-AVP; for compounds with more than one stereogenic center the diastereomer with greater affinity
# Description: Vasopressin V1b Receptor Binding Test:
# The test substances were dissolved at a concentration of 10^−2 M in DMSO, and were further diluted to 5×10^−4 M to 5×10^−9 M in DMSO. This DMSO predilution series was diluted 1:10 with test buffer. In the test assay the substance concentration was further diluted to 1:5 (2% DMSO in the assay).
# The membrane pellet was homogenized again as described and centrifuged, and was then taken up in 50 mM tris-HCl at pH 7.4, homogenized, and frozen in aliquots at −190° C. and stored in liquid nitrogen.
# The incubation buffer was 50 mM tris, 10 mM MgCl2, and 0.1% BSA at pH 7.4. […] The nonspecific binding was determined using 1 μM AVP (Bachem #H1780). All determinations were performed in triplicate. After incubation (60 minutes at room temperature), the free radioligand was filtered off by vacuum filtration (Skatron 7000 cell harvester) through Wathman GF/B fiberglass filter mats, and the filters were transferred to scintillation vessels. The liquid scintillation measurement was conducted in a Model 2000 or 2200CA TriCarb unit (Packard). The measured cpm was converted to dpm using a standard quench series.
# The binding parameters were calculated by nonlinear regression in SAS.
# The affinities of the compounds according to the invention for human vasopressin receptor V1b were measured according to the above test, and the affinity constants (Ki) were determined.
row,Compound,Ki [nM]
1,"5-Chloro-1-(4-cyanobenzenesulfonyl)-3-{4-[(2-hydroxyethylamino)methyl]-2-methoxyphenyl}-3-((2S,4R)-4-hydroxy-2-oxazol-2-yl-pyrrolidin-1-yl)-2,3-dihydroindol-2-one [Example 196]",10 to 100
2,"COc1ccc(S(=O)(=O)N2C(=O)C(c3cc(CN4CCN(C)CC4)ccc3OC)(N3CCC[C@H]3c3ncco3)c3cc(Cl)ccc32)cc1 (single isomer, unassigned) [Example 1]",< 10
3,"COc1ccc(S(=O)(=O)N2C(=O)C(c3cc(CN4CCC4)ccc3OC)(N3CCC[C@H]3c3ncco3)c3cc(Cl)ccc32)cc1 (single isomer, unassigned) [Example 12]",< 10
4,"COc1ccc(S(=O)(=O)N2C(=O)C(c3cc(CN4CCN(C)CC4)ccc3OC)(N3C[C@H](O)C[C@H]3c3ncco3)c3cc(C#N)ccc32)cc1 (single isomer, unassigned) [Example 149]",< 10
5,"COc1ccc(S(=O)(=O)N2C(=O)C(c3cc(CO)ccc3OC)(N3CCC[C@H]3c3ncco3)c3cc(Cl)ccc32)cc1 (stereo partly drawn) [Example 2, 5-Chloro-3-(5-hydroxymethyl-2-methoxyphenyl)-1-(4-methoxybenzenesulfonyl)-3-((S)-2-oxazol-2-yl-pyrrolidin-1-yl)-1,3-dihydroindol-2-one]",10 to 100
6,"CNCc1ccc(OC)c(C2(N3CCC[C@H]3c3ncco3)C(=O)N(S(=O)(=O)c3ccc(OC)cc3)c3ccc(Cl)cc32)c1 (stereo partly drawn) [Example 3, 5-Chloro-1-(4-methoxybenzenesulfonyl)-3-(2-methoxy-5-methylaminomethylphenyl)-3-((S)-2-oxazol-2-yl-pyrrolidin-1-yl)-1,3-dihydroindol-2-one]",< 10
7,"COc1ccc(S(=O)(=O)N2C(=O)C(c3cc(CN(C)C)ccc3OC)(N3CCC[C@H]3c3ncco3)c3cc(Cl)ccc32)cc1 (stereo partly drawn) [Example 4, 5-Chloro-3-(5-dimethylaminomethyl-2-methoxyphenyl)-1-(4-methoxybenzenesulfonyl)-3-((S)-2-oxazol-2-yl-pyrrolidin-1-yl)-1,3-dihydroindol-2-one]",< 10
8,"CCNCc1ccc(OC)c(C2(N3CCC[C@H]3c3ncco3)C(=O)N(S(=O)(=O)c3ccc(OC)cc3)c3ccc(Cl)cc32)c1 (stereo partly drawn) [Example 5, 5-Chloro-3-(5-ethylaminomethyl-2-methoxyphenyl)-1-(4-methoxybenzenesulfonyl)-3-((S)-2-oxazol-2-yl-pyrrolidin-1-yl)-1,3-dihydroindol-2-one]",< 10
9,"CCN(C)Cc1ccc(OC)c(C2(N3CCC[C@H]3c3ncco3)C(=O)N(S(=O)(=O)c3ccc(OC)cc3)c3ccc(Cl)cc32)c1 (stereo partly drawn) [Example 6, 5-Chloro-3-{5-[(ethylmethylamino)methyl]-2-methoxyphenyl}-1-(4-methoxybenzenesulfonyl)-3-((S)-2-oxazol-2-yl-pyrrolidin-1-yl)-1,3-dihydroindol-2-one]",< 10
10,"CCN(CC)Cc1ccc(OC)c(C2(N3CCC[C@H]3c3ncco3)C(=O)N(S(=O)(=O)c3ccc(OC)cc3)c3ccc(Cl)cc32)c1 (stereo partly drawn) [Example 7, 5-Chloro-3-(5-diethylaminomethyl-2-methoxyphenyl)-1-(4-methoxybenzenesulfonyl)-3-((S)-2-oxazol-2-yl-pyrrolidin-1-yl)-1,3-dihydroindol-2-one]",< 10
11,"COc1ccc(S(=O)(=O)N2C(=O)C(c3cc(CNC(C)C)ccc3OC)(N3CCC[C@H]3c3ncco3)c3cc(Cl)ccc32)cc1 (stereo partly drawn) [Example 8, 5-Chloro-3-[5-(isopropylaminomethyl)-2-methoxyphenyl]-1-(4-methoxybenzenesulfonyl)-3-((S)-2-oxazol-2-yl-pyrrolidin-1-yl)-1,3-dihydroindol-2-one]",< 10
12,"COc1ccc(S(=O)(=O)N2C(=O)C(c3cc(CN(C)C(C)C)ccc3OC)(N3CCC[C@H]3c3ncco3)c3cc(Cl)ccc32)cc1 (stereo partly drawn) [Example 9, 5-Chloro-3-{5-[(isopropylmethylamino)methyl]-2-methoxyphenyl}-1-(4-methoxybenzenesulfonyl)-3-((S)-2-oxazol-2-yl-pyrrolidin-1-yl)-1,3-dihydroindol-2-one]",< 10
13,"COc1ccc(S(=O)(=O)N2C(=O)C(c3cc(CNCCO)ccc3OC)(N3CCC[C@H]3c3ncco3)c3cc(Cl)ccc32)cc1 (stereo partly drawn) [Example 10, 5-Chloro-3-{5-[(2-hydroxyethylamino)methyl]-2-methoxyphenyl}-1-(4-methoxybenzenesulfonyl)-3-((S)-2-oxazol-2-yl-pyrrolidin-1-yl)-1,3-dihydroindol-2-one]",< 10
14,"COc1ccc(S(=O)(=O)N2C(=O)C(c3cc(CN4CCNCC4)ccc3OC)(N3CCC[C@H]3c3ncco3)c3cc(Cl)ccc32)cc1 (stereo partly drawn) [Example 11, 5-Chloro-1-(4-methoxybenzenesulfonyl)-3-(2-methoxy-5-piperazin-1-ylmethylphenyl)-3-((S)-2-oxazol-2-yl-pyrrolidin-1-yl)-1,3-dihydroindol-2-one]",< 10
15,"COc1ccc(S(=O)(=O)N2C(=O)C(c3cc(CN4CCCC4)ccc3OC)(N3CCC[C@H]3c3ncco3)c3cc(Cl)ccc32)cc1 (stereo partly drawn) [Example 13, 5-Chloro-1-(4-methoxybenzenesulfonyl)-3-(2-methoxy-5-pyrrolidin-1-ylmethylphenyl)-3-((S)-2-oxazol-2-yl-pyrrolidin-1-yl)-1,3-dihydroindol-2-one]",< 10
16,"COc1ccc(S(=O)(=O)N2C(=O)C(c3cc(CN4CCCCC4)ccc3OC)(N3CCC[C@H]3c3ncco3)c3cc(Cl)ccc32)cc1 (stereo partly drawn) [Example 14, 5-Chloro-1-(4-methoxybenzenesulfonyl)-3-(2-methoxy-5-piperidin-1-ylmethylphenyl)-3-((S)-2-oxazol-2-yl-pyrrolidin-1-yl)-1,3-dihydroindol-2-one]",< 10
17,"COc1ccc(S(=O)(=O)N2C(=O)C(c3ccc(CO)cc3OC)(N3CCC[C@H]3c3ncco3)c3cc(Cl)ccc32)cc1 (stereo partly drawn) [Example 15, 5-Chloro-3-(4-hydroxymethyl-2-methoxyphenyl)-1-(4-methoxybenzenesulfonyl)-3-((S)-2-oxazol-2-yl-pyrrolidin-1-yl)-1,3-dihydroindol-2-one]",10 to 100
18,"CNCc1ccc(C2(N3CCC[C@H]3c3ncco3)C(=O)N(S(=O)(=O)c3ccc(OC)cc3)c3ccc(Cl)cc32)c(OC)c1 (stereo partly drawn) [Example 16, 5-Chloro-1-(4-methoxybenzenesulfonyl)-3-(2-methoxy-4-methylaminomethylphenyl)-3-((S)-2-oxazol-2-yl-pyrrolidin-1-yl)-1,3-dihydroindol-2-one]",< 10
19,"COc1ccc(S(=O)(=O)N2C(=O)C(c3ccc(CN(C)C)cc3OC)(N3CCC[C@H]3c3ncco3)c3cc(Cl)ccc32)cc1 (stereo partly drawn) [Example 17, 5-Chloro-3-(4-dimethylaminomethyl-2-methoxyphenyl)-1-(4-methoxybenzenesulfonyl)-3-((S)-2-oxazol-2-yl-pyrrolidin-1-yl)-1,3-dihydroindol-2-one]",< 10
20,"CCN(C)Cc1ccc(C2(N3CCC[C@H]3c3ncco3)C(=O)N(S(=O)(=O)c3ccc(OC)cc3)c3ccc(Cl)cc32)c(OC)c1 (stereo partly drawn) [Example 18, 5-Chloro-3-{4-[(ethylmethylamino)methyl]-2-methoxyphenyl}-1-(4-methoxybenzenesulfonyl)-3-((S)-2-oxazol-2-yl-pyrrolidin-1-yl)-1,3-dihydroindol-2-one]",< 10
21,"CCN(CC)Cc1ccc(C2(N3CCC[C@H]3c3ncco3)C(=O)N(S(=O)(=O)c3ccc(OC)cc3)c3ccc(Cl)cc32)c(OC)c1 (stereo partly drawn) [Example 19, 5-Chloro-3-(4-diethylaminomethyl-2-methoxyphenyl)-1-(4-methoxybenzenesulfonyl)-3-((S)-2-oxazol-2-yl-pyrrolidin-1-yl)-1,3-dihydroindol-2-one]",< 10
22,"CCCNCc1ccc(C2(N3CCC[C@H]3c3ncco3)C(=O)N(S(=O)(=O)c3ccc(OC)cc3)c3ccc(Cl)cc32)c(OC)c1 (stereo partly drawn) [Example 20, 5-Chloro-1-(4-methoxybenzenesulfonyl)-3-(2-methoxy-4-propylaminomethylphenyl)-3-((S)-2-oxazol-2-yl-pyrrolidin-1-yl)-1,3-dihydroindol-2-one]",< 10
23,"COc1ccc(S(=O)(=O)N2C(=O)C(c3ccc(CN(C)C(C)C)cc3OC)(N3CCC[C@H]3c3ncco3)c3cc(Cl)ccc32)cc1 (stereo partly drawn) [Example 21, 5-Chloro-3-{4-[(isopropylmethylamino)methyl]-2-methoxyphenyl}-1-(4-methoxybenzenesulfonyl)-3-((S)-2-oxazol-2-yl-pyrrolidin-1-yl)-1,3-dihydroindol-2-one]",< 10

# — patent US8044079B2, “Substituted oxindole derivatives, medicaments containing said derivatives and use thereof” (Abbott GmbH & Co. KG, priority 2005, dated 2011)
